Values of other authors, collected in patent US20230165871A1, “COMBINATION THERAPIES FOR INHIBITION OF POLO-LIKE KINASE 4” (UNIVERSITY HEALTH NETWORK, priority 2020, published 2023).

Experiments:
cancer cell lines = conditions: via induction of apoptosis and cell cycle arrest with induction of aneuploidy
[1] = in vivo
[2] = clinical
[3] = test system: cell line and patient-derived xenografts of breast and ovarian cancer; conditions: tolerable doses

Question: For `COc1ccc2c(c1)[C@]1(C[C@H]1c1ccc3c(/C=C/c4ccc(CN5C[C@@H](C)O[C@@H](C)C5)cc4)n[nH]c3c1)C(=O)N2` [Compound (I)], which “anti-proliferative effects in cancer cell lines” value (cancer cell lines) is on record?
Answer: potent anti-proliferative effects

Question: What about the oral bioavailability [1] of the same compound?
Answer: orally bioavailable

Question: What about the “major toxic effects which limit dose” value [2] of the same compound?
Answer: neutropenia, thrombocytopenia, fever, diarrhea and increased liver function tests

Question: What about the “anti-tumour effects in xenograft models” value [3] of the same compound?
Answer: potent anti-tumour effects at tolerable doses
